In ChEMBL document CHEMBL5724914, “Linking interpersonal differences in gut microbiota composition and drug biotransformation activity” (2024):

Experiment: (§1) The drug is tested on Z-028 corresponding to mouse gut metagenome with ENA study accession number: PRJEB37062 and ENA sample accession number: ERS12561827 for biotransformation under anaerobic condition. The drug concentrations were measured over 9 timepoints collected between 0 and 24 hours of incubation by liquid-chromatography-coupled mass spectrometry (LC–MS)
Conditions: 2 µM
Further: call rule not given here.

Bacterial Biotransformation | Structure (SMILES)
Compound NOT metabolized | CCOC(=O)[C@H](CCc1ccccc1)N[C@@H](C)C(=O)N1[C@H](C(=O)O)C[C@@H]2CCC[C@@H]21
Compound NOT metabolized | CN1C(=O)CC(C)(c2ccccc2)C1=O (stereo not given) [METHSUXIMIDE]
Compound NOT metabolized | O=C1NCC2(CCN(CCc3ccccc3)CC2)O1 [FENSPIRIDE]

Structure (SMILES) | Bacterial Biotransformation
CN1C(=O)CCS(=O)(=O)C1c1ccc(Cl)cc1 (stereo not given) [CHLORMEZANONE] | Compound NOT metabolized

Experiment: as §1, with “Z-027” for “Z-028”, “to” for “to mouse gut”, “ERS12561826” for “ERS12561827”
Conditions: 2 µM

Bacterial Biotransformation | Structure (SMILES)
Compound NOT metabolized | CCOC(=O)[C@H](CCc1ccccc1)N[C@@H](C)C(=O)N1[C@H](C(=O)O)C[C@@H]2CCC[C@@H]21
Compound NOT metabolized | CN1C(=O)CC(C)(c2ccccc2)C1=O (stereo not given) [METHSUXIMIDE]
Compound NOT metabolized | O=C1NCC2(CCN(CCc3ccccc3)CC2)O1 [FENSPIRIDE]

Structure (SMILES) | Bacterial Biotransformation
CN1C(=O)CCS(=O)(=O)C1c1ccc(Cl)cc1 (stereo not given) [CHLORMEZANONE] | Compound NOT metabolized

Experiment: as §1, with “Z-024” for “Z-028”, “pig” for “mouse”, “ERS12561823” for “ERS12561827”
Conditions: 2 µM

Bacterial Biotransformation | Structure (SMILES)
Compound metabolized | CCOC(=O)[C@H](CCc1ccccc1)N[C@@H](C)C(=O)N1[C@H](C(=O)O)C[C@@H]2CCC[C@@H]21
Compound metabolized | CN1C(=O)CC(C)(c2ccccc2)C1=O (stereo not given) [METHSUXIMIDE]
Compound NOT metabolized | O=C1NCC2(CCN(CCc3ccccc3)CC2)O1 [FENSPIRIDE]

Structure (SMILES) | Bacterial Biotransformation
CN1C(=O)CCS(=O)(=O)C1c1ccc(Cl)cc1 (stereo not given) [CHLORMEZANONE] | Compound NOT metabolized

Experiment: as §1, with “Z-020” for “Z-028”, “rabbit” for “mouse”, “ERS12561819” for “ERS12561827”
Conditions: 2 µM

Bacterial Biotransformation | Structure (SMILES)
Compound metabolized | CCOC(=O)[C@H](CCc1ccccc1)N[C@@H](C)C(=O)N1[C@H](C(=O)O)C[C@@H]2CCC[C@@H]21
Compound NOT metabolized | CN1C(=O)CC(C)(c2ccccc2)C1=O (stereo not given) [METHSUXIMIDE]
Compound NOT metabolized | O=C1NCC2(CCN(CCc3ccccc3)CC2)O1 [FENSPIRIDE]

Structure (SMILES) | Bacterial Biotransformation
CN1C(=O)CCS(=O)(=O)C1c1ccc(Cl)cc1 (stereo not given) [CHLORMEZANONE] | Compound NOT metabolized

Experiment: as §1, with “Z-013” for “Z-028”, “rabbit” for “mouse”, “ERS12561813” for “ERS12561827”
Conditions: 2 µM

Bacterial Biotransformation | Structure (SMILES)
Compound NOT metabolized | CCOC(=O)[C@H](CCc1ccccc1)N[C@@H](C)C(=O)N1[C@H](C(=O)O)C[C@@H]2CCC[C@@H]21
Compound NOT metabolized | CN1C(=O)CC(C)(c2ccccc2)C1=O (stereo not given) [METHSUXIMIDE]
Compound NOT metabolized | O=C1NCC2(CCN(CCc3ccccc3)CC2)O1 [FENSPIRIDE]

Structure (SMILES) | Bacterial Biotransformation
CN1C(=O)CCS(=O)(=O)C1c1ccc(Cl)cc1 (stereo not given) [CHLORMEZANONE] | Compound NOT metabolized

Experiment: as §1, with “Z-009” for “Z-028”, “pig” for “mouse”, “ERS12561809” for “ERS12561827”
Conditions: 2 µM

Bacterial Biotransformation | Structure (SMILES)
Compound metabolized | CCOC(=O)[C@H](CCc1ccccc1)N[C@@H](C)C(=O)N1[C@H](C(=O)O)C[C@@H]2CCC[C@@H]21
Compound NOT metabolized | CN1C(=O)CC(C)(c2ccccc2)C1=O (stereo not given) [METHSUXIMIDE]
Compound NOT metabolized | O=C1NCC2(CCN(CCc3ccccc3)CC2)O1 [FENSPIRIDE]

Structure (SMILES) | Bacterial Biotransformation
CN1C(=O)CCS(=O)(=O)C1c1ccc(Cl)cc1 (stereo not given) [CHLORMEZANONE] | Compound NOT metabolized

Experiment: as §1, with “Z-007” for “Z-028”, “rat” for “mouse”, “ERS12561807” for “ERS12561827”
Conditions: 2 µM

Bacterial Biotransformation | Structure (SMILES)
Compound metabolized | CCOC(=O)[C@H](CCc1ccccc1)N[C@@H](C)C(=O)N1[C@H](C(=O)O)C[C@@H]2CCC[C@@H]21
Compound NOT metabolized | CN1C(=O)CC(C)(c2ccccc2)C1=O (stereo not given) [METHSUXIMIDE]
Compound NOT metabolized | O=C1NCC2(CCN(CCc3ccccc3)CC2)O1 [FENSPIRIDE]

Structure (SMILES) | Bacterial Biotransformation
CN1C(=O)CCS(=O)(=O)C1c1ccc(Cl)cc1 (stereo not given) [CHLORMEZANONE] | Compound NOT metabolized

Experiment: as §1, with “Z-001” for “Z-028”, “ERS12561801” for “ERS12561827”
Conditions: 2 µM

Bacterial Biotransformation | Structure (SMILES)
Compound NOT metabolized | CCOC(=O)[C@H](CCc1ccccc1)N[C@@H](C)C(=O)N1[C@H](C(=O)O)C[C@@H]2CCC[C@@H]21
Compound NOT metabolized | CN1C(=O)CC(C)(c2ccccc2)C1=O (stereo not given) [METHSUXIMIDE]
Compound metabolized | O=C1NCC2(CCN(CCc3ccccc3)CC2)O1 [FENSPIRIDE]

Structure (SMILES) | Bacterial Biotransformation
CN1C(=O)CCS(=O)(=O)C1c1ccc(Cl)cc1 (stereo not given) [CHLORMEZANONE] | Compound NOT metabolized

Experiment: as §1, with “WLS-082” for “Z-028”, “human” for “mouse”, “ERS12561751” for “ERS12561827”
Conditions: 2 µM

Bacterial Biotransformation | Structure (SMILES)
Compound metabolized | CCOC(=O)[C@H](CCc1ccccc1)N[C@@H](C)C(=O)N1[C@H](C(=O)O)C[C@@H]2CCC[C@@H]21
Compound NOT metabolized | CN1C(=O)CC(C)(c2ccccc2)C1=O (stereo not given) [METHSUXIMIDE]
Compound NOT metabolized | O=C1NCC2(CCN(CCc3ccccc3)CC2)O1 [FENSPIRIDE]

Structure (SMILES) | Bacterial Biotransformation
CN1C(=O)CCS(=O)(=O)C1c1ccc(Cl)cc1 (stereo not given) [CHLORMEZANONE] | Compound NOT metabolized

Experiment: as §1, with “WLS-006” for “Z-028”, “human” for “mouse”, “ERS12561741” for “ERS12561827”
Conditions: 2 µM

Bacterial Biotransformation | Structure (SMILES)
Compound metabolized | CCOC(=O)[C@H](CCc1ccccc1)N[C@@H](C)C(=O)N1[C@H](C(=O)O)C[C@@H]2CCC[C@@H]21
Compound NOT metabolized | CN1C(=O)CC(C)(c2ccccc2)C1=O (stereo not given) [METHSUXIMIDE]
Compound NOT metabolized | O=C1NCC2(CCN(CCc3ccccc3)CC2)O1 [FENSPIRIDE]

Structure (SMILES) | Bacterial Biotransformation
CN1C(=O)CCS(=O)(=O)C1c1ccc(Cl)cc1 (stereo not given) [CHLORMEZANONE] | Compound metabolized

Conditions: human gut metagenome, 24 h, 2 µM

Bacterial Biotransformation | Structure (SMILES)
Compound metabolized | CCOC(=O)[C@H](CCc1ccccc1)N[C@@H](C)C(=O)N1[C@H](C(=O)O)C[C@@H]2CCC[C@@H]21
Compound metabolized | CN1C(=O)CC(C)(c2ccccc2)C1=O (stereo not given) [METHSUXIMIDE]
Compound NOT metabolized | O=C1NCC2(CCN(CCc3ccccc3)CC2)O1 [FENSPIRIDE]

Structure (SMILES) | Bacterial Biotransformation
CN1C(=O)CCS(=O)(=O)C1c1ccc(Cl)cc1 (stereo not given) [CHLORMEZANONE] | Compound NOT metabolized

Conditions: human gut metagenome, 24 h, 2 µM
Remark: another data set of the same source

Bacterial Biotransformation | Structure (SMILES)
Compound metabolized | CCOC(=O)[C@H](CCc1ccccc1)N[C@@H](C)C(=O)N1[C@H](C(=O)O)C[C@@H]2CCC[C@@H]21
Compound NOT metabolized | CN1C(=O)CC(C)(c2ccccc2)C1=O (stereo not given) [METHSUXIMIDE]
Compound NOT metabolized | O=C1NCC2(CCN(CCc3ccccc3)CC2)O1 [FENSPIRIDE]

Structure (SMILES) | Bacterial Biotransformation
CN1C(=O)CCS(=O)(=O)C1c1ccc(Cl)cc1 (stereo not given) [CHLORMEZANONE] | Compound metabolized

Conditions: human gut metagenome, 24 h, 2 µM
Remark: another data set of the same source

Bacterial Biotransformation | Structure (SMILES)
Compound metabolized | CCOC(=O)[C@H](CCc1ccccc1)N[C@@H](C)C(=O)N1[C@H](C(=O)O)C[C@@H]2CCC[C@@H]21
Compound NOT metabolized | CN1C(=O)CC(C)(c2ccccc2)C1=O (stereo not given) [METHSUXIMIDE]
Compound NOT metabolized | O=C1NCC2(CCN(CCc3ccccc3)CC2)O1 [FENSPIRIDE]

Structure (SMILES) | Bacterial Biotransformation
CN1C(=O)CCS(=O)(=O)C1c1ccc(Cl)cc1 (stereo not given) [CHLORMEZANONE] | Compound NOT metabolized

Conditions: human gut metagenome, 24 h, 2 µM
Remark: another data set of the same source

Bacterial Biotransformation | Structure (SMILES)
Compound metabolized | CCOC(=O)[C@H](CCc1ccccc1)N[C@@H](C)C(=O)N1[C@H](C(=O)O)C[C@@H]2CCC[C@@H]21
Compound NOT metabolized | CN1C(=O)CC(C)(c2ccccc2)C1=O (stereo not given) [METHSUXIMIDE]
Compound NOT metabolized | O=C1NCC2(CCN(CCc3ccccc3)CC2)O1 [FENSPIRIDE]

Structure (SMILES) | Bacterial Biotransformation
CN1C(=O)CCS(=O)(=O)C1c1ccc(Cl)cc1 (stereo not given) [CHLORMEZANONE] | Compound NOT metabolized

Conditions: human gut metagenome, 24 h, 2 µM
Remark: another data set of the same source

Bacterial Biotransformation | Structure (SMILES)
Compound metabolized | CCOC(=O)[C@H](CCc1ccccc1)N[C@@H](C)C(=O)N1[C@H](C(=O)O)C[C@@H]2CCC[C@@H]21
Compound metabolized | CN1C(=O)CC(C)(c2ccccc2)C1=O (stereo not given) [METHSUXIMIDE]
Compound NOT metabolized | O=C1NCC2(CCN(CCc3ccccc3)CC2)O1 [FENSPIRIDE]

Structure (SMILES) | Bacterial Biotransformation
CN1C(=O)CCS(=O)(=O)C1c1ccc(Cl)cc1 (stereo not given) [CHLORMEZANONE] | Compound metabolized

Conditions: human gut metagenome, 24 h, 2 µM
Remark: another data set of the same source

Bacterial Biotransformation | Structure (SMILES)
Compound metabolized | CCOC(=O)[C@H](CCc1ccccc1)N[C@@H](C)C(=O)N1[C@H](C(=O)O)C[C@@H]2CCC[C@@H]21
Compound NOT metabolized | CN1C(=O)CC(C)(c2ccccc2)C1=O (stereo not given) [METHSUXIMIDE]
Compound NOT metabolized | O=C1NCC2(CCN(CCc3ccccc3)CC2)O1 [FENSPIRIDE]

Structure (SMILES) | Bacterial Biotransformation
CN1C(=O)CCS(=O)(=O)C1c1ccc(Cl)cc1 (stereo not given) [CHLORMEZANONE] | Compound NOT metabolized

Conditions: human gut metagenome, 24 h, 2 µM
Remark: another data set of the same source

Bacterial Biotransformation | Structure (SMILES)
Compound metabolized | CCOC(=O)[C@H](CCc1ccccc1)N[C@@H](C)C(=O)N1[C@H](C(=O)O)C[C@@H]2CCC[C@@H]21
Compound metabolized | CN1C(=O)CC(C)(c2ccccc2)C1=O (stereo not given) [METHSUXIMIDE]
Compound NOT metabolized | O=C1NCC2(CCN(CCc3ccccc3)CC2)O1 [FENSPIRIDE]

Structure (SMILES) | Bacterial Biotransformation
CN1C(=O)CCS(=O)(=O)C1c1ccc(Cl)cc1 (stereo not given) [CHLORMEZANONE] | Compound metabolized

Conditions: human gut metagenome, 24 h, 2 µM
Remark: another data set of the same source

Bacterial Biotransformation | Structure (SMILES)
Compound NOT metabolized | CCOC(=O)[C@H](CCc1ccccc1)N[C@@H](C)C(=O)N1[C@H](C(=O)O)C[C@@H]2CCC[C@@H]21
Compound NOT metabolized | CN1C(=O)CC(C)(c2ccccc2)C1=O (stereo not given) [METHSUXIMIDE]
Compound NOT metabolized | O=C1NCC2(CCN(CCc3ccccc3)CC2)O1 [FENSPIRIDE]

Structure (SMILES) | Bacterial Biotransformation
CN1C(=O)CCS(=O)(=O)C1c1ccc(Cl)cc1 (stereo not given) [CHLORMEZANONE] | Compound NOT metabolized

Conditions: human gut metagenome, 24 h, 2 µM
Remark: another data set of the same source

Bacterial Biotransformation | Structure (SMILES)
Compound metabolized | CCOC(=O)[C@H](CCc1ccccc1)N[C@@H](C)C(=O)N1[C@H](C(=O)O)C[C@@H]2CCC[C@@H]21
Compound metabolized | CN1C(=O)CC(C)(c2ccccc2)C1=O (stereo not given) [METHSUXIMIDE]
Compound metabolized | O=C1NCC2(CCN(CCc3ccccc3)CC2)O1 [FENSPIRIDE]

Structure (SMILES) | Bacterial Biotransformation
CN1C(=O)CCS(=O)(=O)C1c1ccc(Cl)cc1 (stereo not given) [CHLORMEZANONE] | Compound NOT metabolized

Conditions: human gut metagenome, 24 h, 2 µM
Remark: another data set of the same source

Bacterial Biotransformation | Structure (SMILES)
Compound metabolized | CCOC(=O)[C@H](CCc1ccccc1)N[C@@H](C)C(=O)N1[C@H](C(=O)O)C[C@@H]2CCC[C@@H]21
Compound NOT metabolized | CN1C(=O)CC(C)(c2ccccc2)C1=O (stereo not given) [METHSUXIMIDE]
Compound NOT metabolized | O=C1NCC2(CCN(CCc3ccccc3)CC2)O1 [FENSPIRIDE]

Structure (SMILES) | Bacterial Biotransformation
CN1C(=O)CCS(=O)(=O)C1c1ccc(Cl)cc1 (stereo not given) [CHLORMEZANONE] | Compound metabolized
